Assay results: patent US12478610B2, “Compositions of tryptophol derivatives and 4-ethyl-phenol derivatives, and methods of using same” (B. G. Negev Technologies and Applications Ltd., at …, priority 2020, dated 2025)

Tests used:
human normal whole blood [1] = experiment: Thromboelastography (TEG) of human normal whole blood clotting; type: cell-based; details: 200 μM (mixture: 200 μM each); healthy blood; TBS control
human normal whole blood [2] = experiment: as above; type: cell-based
Protocol: Clotting of whole blood (from healthy volunteers, and diabetics patients) was monitored by thromboelastography (TEG) on a TEGs 5000 Hemostasis Analyzer (Haemoscope Inc., Niles, IL) equipped with two independent channels. Thermoelastograms were recorded at 37° C. and analyzed using the TEGs Analytical Software) version 4.2.3 provided with the instrument). Reported clotting parameters are the time until the onset in the measured strength considered as clot reaction time, R; the time until achieving 20% of the maximum clot strength (clotting time), k; the rate of clot strength increase measuring the kinetics of clot formation, the α angle; and finally, the maximum clot strength, MA.
Aqueous solutions of molecules mixture in a ratio of 1:1 in deionized water were prepared in the concentration range of 400-1,800 μM. TEG cups were first filled with […] of 250 mM CaCl2, supplemented with […] of human blood sample, followed by the addition of the appropriate volume of the molecule's mixture dissolved in water to obtain the above rang of concentration or TBS as control before initiating the test. The test completed when clotting parameters obtained final values or within 45 min. Each sample was run in duplicates, n≥5 individual blood samples. TEG values of control fell within the acceptable range reported for human whole blood barring an expected decrease in clot strength (MA), as tested blood was deficient in platelets (Scarpelini et al. Biol. Res., 2009).
The inventors have studied the effect of tryptophol acetate and tyrosol acetate on human normal whole blood coagulation. The blood clotting was monitored by thromboelastography (TEG). TEG is one of the most common whole-blood viscoelastic coagulation tests used in clinical laboratories and at the point of care. TEG provides a direct information of the blood clotting kinetic and strength, with no ‘added reagents. Clotting of human normal whole blood was monitored by TEG on a TEG 5000 Hemostasis Analyzer (Haemoscope Inc., Niles, IL) equipped with two independent channels. Thermoelastograms were recorded at 37° C. and analyzed using the TEG Analytical Software (version 4.2.3 provided using the instrument). Reported clotting parameters are the time till onset in the measured strength considered as the clot reaction time, R; the time till achieving 20% of the maximum clot strength (clotting time), k; the rate of the clot strength increase measuring the kinetics of clot formation, the α angle; and lastly, the maximum clot strength, MA (see table 1). […]

[3] = 400 μM (mixture: 400 μM each), healthy blood, TBS control

SMILES: CC(=O)OCCc1ccc(O)cc1 [compound 180, Tyrosol acetate]
- K (human normal whole blood [1]): 1.8 min
- MA (mm) (human normal whole blood [1]): 59.0 mm
- R (human normal whole blood [1]): 6.4 min
- α (degree) (human normal whole blood [1]): 59.6 degree

SMILES: CC(=O)OCCc1c[nH]c2ccccc12 [compound 203, Tryptophol acetate]
- K (human normal whole blood [1]): 2.3 ± 0.1 min
- MA (mm) (human normal whole blood [1]): 60.5 ± 1.5 mm
- R (human normal whole blood [1]): 6.2 ± 0.2 min
- α (degree) (human normal whole blood [1]): 56.8 ± 2.7 degree

SMILES: NCCc1c[nH]c2ccc(O)cc12 [Serotonin, serotonin]
- K (human normal whole blood [2]; [3]): 1.5 ± 0.2 min
- MA (mm) (human normal whole blood [2]; [3]): 61.3 ± 1.7 mm
- R (min) (human normal whole blood [2]; [3]): 5.2 + 0.4 min
- α (degree) (human normal whole blood [2]; [3]): 62.4 ± 0.9 degree
- effect on the TEG parameters as seen with the mixture at 200 μM each (human normal whole blood [2]; single substance at a similar concentration, whole blood): did not show a similar effect
- K (human normal whole blood [1]): 2.4 ± 0.2 min
- MA (mm) (human normal whole blood [1]): 60 ± 0.4 mm
- R (human normal whole blood [1]): 6.8 ± 0.9 min
- α (degree) (human normal whole blood [1]): 58.2 ± 0.3 degree
